From patent US11884661B2, “3-substituted propionic acids as αV integrin inhibitors” (BRISTOL-MYERS SQUIBB COMPANY, priority 2016, dated 2024)
Counter-ions that a name gives are not always drawn.

These compounds were tested against T1, human αVβ6 (Homo sapiens, UniProt P06756+P18564) (assay: human αVβ6 HTRF binding assay). Conditions: recombinant human αVβ6 integrin, FITC-conjugated fibronectin.
T1 construct: purchased R & D systems 3817-AV
How it was run: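 Biotinylated recombinant αVβ6 (1.25 nM final) incubated with FITC-fibronectin (5 nM) 1 h at RT, then streptavidin-terbium (0.625 nM) added and incubated overnight at RT in the dark before HTRF read. Buffer: 20 mM Tris pH 7.4, 1 mM MgCl2, 1 mM MnCl2, 0.01% Tween 20, 0.01% BSA.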

T1 sequence (P06756 31-992 limits assumed): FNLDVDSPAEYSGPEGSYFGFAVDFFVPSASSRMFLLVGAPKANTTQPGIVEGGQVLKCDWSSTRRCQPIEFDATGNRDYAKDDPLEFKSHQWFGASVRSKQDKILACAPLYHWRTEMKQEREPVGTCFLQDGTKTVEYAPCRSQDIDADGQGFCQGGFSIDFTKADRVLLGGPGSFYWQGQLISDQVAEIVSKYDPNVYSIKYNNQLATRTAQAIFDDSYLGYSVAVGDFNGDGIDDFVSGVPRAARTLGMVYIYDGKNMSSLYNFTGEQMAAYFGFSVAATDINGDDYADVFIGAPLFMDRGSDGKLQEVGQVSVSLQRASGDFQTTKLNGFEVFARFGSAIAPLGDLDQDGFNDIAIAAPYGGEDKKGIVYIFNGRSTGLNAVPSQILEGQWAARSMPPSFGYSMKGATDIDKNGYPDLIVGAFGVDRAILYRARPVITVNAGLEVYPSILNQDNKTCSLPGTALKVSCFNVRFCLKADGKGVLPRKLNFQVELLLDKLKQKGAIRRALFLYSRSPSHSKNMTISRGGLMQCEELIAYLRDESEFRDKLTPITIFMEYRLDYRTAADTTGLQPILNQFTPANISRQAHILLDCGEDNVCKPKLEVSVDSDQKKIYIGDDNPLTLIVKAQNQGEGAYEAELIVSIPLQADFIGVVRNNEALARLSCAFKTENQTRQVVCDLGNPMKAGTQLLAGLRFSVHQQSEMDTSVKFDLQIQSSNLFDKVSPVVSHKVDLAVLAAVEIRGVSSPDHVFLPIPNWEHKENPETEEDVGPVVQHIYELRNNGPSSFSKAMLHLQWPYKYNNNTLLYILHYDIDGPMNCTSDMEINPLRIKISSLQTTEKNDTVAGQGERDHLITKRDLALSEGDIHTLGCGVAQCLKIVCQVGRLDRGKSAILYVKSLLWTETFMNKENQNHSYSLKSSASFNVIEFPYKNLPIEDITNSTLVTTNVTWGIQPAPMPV
T1 sequence (P18564 22-707 limits assumed): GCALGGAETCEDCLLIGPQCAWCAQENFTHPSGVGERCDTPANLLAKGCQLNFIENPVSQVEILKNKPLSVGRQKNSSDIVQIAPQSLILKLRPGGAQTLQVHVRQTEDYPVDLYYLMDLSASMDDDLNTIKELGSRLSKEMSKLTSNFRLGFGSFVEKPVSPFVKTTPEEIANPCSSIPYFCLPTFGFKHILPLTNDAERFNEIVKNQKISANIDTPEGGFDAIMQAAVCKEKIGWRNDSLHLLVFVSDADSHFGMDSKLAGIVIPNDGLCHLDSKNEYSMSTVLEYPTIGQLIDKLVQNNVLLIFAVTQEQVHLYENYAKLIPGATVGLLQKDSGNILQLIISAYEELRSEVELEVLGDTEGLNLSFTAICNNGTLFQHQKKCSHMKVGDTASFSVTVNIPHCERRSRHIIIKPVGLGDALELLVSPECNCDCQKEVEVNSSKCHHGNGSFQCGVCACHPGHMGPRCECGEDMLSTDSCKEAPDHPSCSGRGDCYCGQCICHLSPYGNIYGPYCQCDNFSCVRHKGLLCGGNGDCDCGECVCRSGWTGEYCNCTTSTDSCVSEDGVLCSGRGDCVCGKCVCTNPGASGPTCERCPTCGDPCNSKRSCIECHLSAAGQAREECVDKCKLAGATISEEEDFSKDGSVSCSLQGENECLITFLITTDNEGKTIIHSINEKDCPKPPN

| IC50 | SMILES |
| --- | --- |
| 19 nM | COc1cncc(C(CC(=O)O)n2ccc(CCCc3ccc4c(n3)NCCC4)n2)c1 (single isomer, unassigned) [Example 64, 3-(5-methoxypyridin-3-yl)-3-(3-(3-(5,6,7,8-tetrahydro-1,8-naphthyridin-2-yl)propyl)-1H-pyrazol-1-yl)propanoic acid] |
| 1.6 nM | Cn1cc([C@H](CC(=O)O)n2ccc(CCCc3ccc4c(n3)NCCC4)n2)ccc1=O [Example 45, (S)-3-(1-Methyl-6-oxo-1,6-dihydropyridin-3-yl)-3-(3-(3-(5,6,7,8-tetrahydro-1,8-naphthyridin-2-yl)propyl)-1H-pyrazol-1-yl)propanoic acid ditrifluoroacetic acid salt] |
| 52 nM | O=C(O)C[C@@H](c1cnc(O)nc1)n1ccc(CCCc2ccc3c(n2)NCCC3)n1 [Example 85, (S)-3-(2-hydroxypyrimidin-5-yl)-3-(3-(3-(5,6,7,8-tetrahydro-1,8-naphthyridin-2-yl)propyl)-1H-pyrazol-1-yl)propanoic acid] |
| 170 nM | CN(C)c1ccc(C(CC(=O)O)c2nc(CCCCc3ccc4c(n3)NCCC4)cs2)cn1 (single isomer, unassigned) [Example 121, 3-(6-(dimethylamino)pyridin-3-yl)-3-(4-(4-(5,6,7,8-tetrahydro-1,8-naphthyridin-2-yl)butyl)thiazol-2-yl)propanoic acid] |
| 110 nM | COc1cnc(C(CC(=O)O)n2ccc(CCCc3ccc4c(n3)NCCC4)n2)cn1 (racemic) [Example 59, (±)-3-(5-Methoxypyrazin-2-yl)-3-(3-(3-(5,6,7,8-tetrahydro-1,8-naphthyridin-2-yl)propyl)-1H-pyrazol-1-yl)propanoic acid] |
| 54 nM | COc1ccc(C(CC(=O)O)c2csc(CCCc3ccc4c(n3)NCCC4)n2)cc1F (stereo not shown) [Example 153, 3-(3-fluoro-4-methoxyphenyl)-3-(2-(3-(5,6,7,8-tetrahydro-1,8-naphthyridin-2-yl)propyl)thiazol-4-yl)propanoic acid] |
| 28 nM | CCOc1ncc(C(CC(=O)O)c2nc(CCCCc3ccc4c(n3)NCCC4)cs2)cn1 (single isomer, unassigned) [Example 129, 3-(2-ethoxypyrimidin-5-yl)-3-(4-(4-(5,6,7,8-tetrahydro-1,8-naphthyridin-2-yl)butyl)thiazol-2-yl)propanoic acid] |
| 2.8 nM | O=C(O)CC(c1cncc(N2CCOCC2)c1)n1ccc(CCCc2ccc3c(n2)NCCC3)n1 (single isomer, unassigned) [Example 68, 3-[5-(morpholin-4-yl)pyridin-3-yl]-3-{3-[3-(5,6,7,8-tetrahydro-1,8-naphthyridin-2-yl)propyl]-1H-pyrazol-1-yl}propanoic acid] |
| 60 nM | CN(C)C(=O)c1ccc(C(CC(=O)O)c2nc(CCCCc3ccc4c(n3)NCCC4)cs2)cc1 (single isomer, unassigned) [Example 127, 3-(4-(dimethylcarbamoyl)phenyl)-3-(4-(4-(5,6,7,8-tetrahydro-1,8-naphthyridin-2-yl)butyl)thiazol-2-yl)propanoic acid] |
| 10 nM | COc1ncc(C(CC(=O)O)n2ccc(CCCc3ccc4c(n3)NCCCC4)n2)cn1 (single isomer, unassigned) [Example 104, 3-(2-methoxypyrimidin-5-yl)-3-(3-(3-(6,7,8,9-tetrahydro-5H-pyrido[2,3-b]azepin-2-yl)propyl)-1H-pyrazol-1-yl)propanoic acid] |
| 17 nM | O=C(O)CC(c1cnc2c(c1)OCCO2)n1ccc(CCCc2ccc3c(n2)NCCC3)n1 (racemic) [Example 35, (±)-3-(2,3-Dihydro-[1,4]dioxino[2,3-b]pyridin-7-yl)-3-(3-(3-(5,6,7,8-tetrahydro-1,8-naphthyridin-2-yl)propyl)-1H-pyrazol-1-yl)propanoic acid] |
| 480 nM | CCOc1ncc([C@@H](CC(=O)O)n2ccc(CCCc3ccc4c(n3)NCCC4)n2)cn1 [Example 81, (R)-3-(2-ethoxypyrimidin-5-yl)-3-(3-(3-(5,6,7,8-tetrahydro-1,8-naphthyridin-2-yl)propyl)-1H-pyrazol-1-yl)propanoic acid] |
| 270 nM | Cc1ncc([C@H](CC(=O)O)n2ccc(CCC[C@H]3CCc4cccnc4N3)n2)cn1 [Example 86, (S)-3-(2-methylpyrimidin-5-yl)-3-(3-(3-((S)-1,2,3,4-tetrahydro-1,8-naphthyridin-2-yl)propyl)-1H-pyrazol-1-yl)propanoic acid] |
| 4 nM | CN(C)C(=O)c1ccc(C(CC(=O)O)c2nc(CCCc3ccc4c(n3)NCCC4)cs2)cc1 (single isomer, unassigned) [Example 138, 3-(4-(dimethylcarbamoyl)phenyl)-3-(4-(3-(5,6,7,8-tetrahydro-1,8-naphthyridin-2-yl)propyl)thiazol-2-yl)propanoic acid] |
| 410 nM | Cc1ncc(C(CC(=O)O)n2nccc2CCCc2ccc3c(n2)NCCCC3)cn1 (racemic) [Example 99, (±)-3-(2-methylpyrimidin-5-yl)-3-(5-(3-(6,7,8,9-tetrahydro-5/Z-pyrido[2,3-b]azepin-2-yl)propyl)-1H-pyrazol-1-yl)propanoic acid] |
| 97 nM | COc1ccc(C(CC(=O)O)c2cc(CCCc3ccc4c(n3)NCCC4)[nH]n2)cc1F (single isomer, unassigned) [Example 115, 3-(3-Fluoro-4-methoxyphenyl)-3-(5-(3-(5,6,7,8-tetrahydro-1,8-naphthyridin-2-yl)propyl)-1H-pyrazol-3-yl)propanoic acid] |
| 21 nM | O=C(O)CC(c1cncc(N2CCCC2)c1)n1ccc(CCCc2ccc3c(n2)NCCC3)n1 (racemic) [Example 66, (±)-3-[5-(pyrrolidin-1-yl)pyridin-3-yl]-3-{3-[3-(5,6,7,8-tetrahydro-1,8-naphthyridin-2-yl)propyl]-1H-pyrazol-1-yl}propanoic acid] |
| 44 nM | COc1ccc(C(CC(=O)O)c2ncc(CCCc3ccc4c(n3)NCCC4)s2)cn1 (single isomer, unassigned) [Example 19, 3-(6-Methoxypyridin-3-yl)-3-(5-(3-(5,6,7,8-tetrahydro-1,8-naphthyridin-2-yl)propyl)thiazol-2-yl)propanoic acid] |
| 170 nM | COc1ccc(C(CC(=O)O)n2cc(CCCc3ccc4c(n3)NCCC4)cn2)cn1 (racemic) [Example 62, (±)-3-(6-Methoxypyridin-3-yl)-3-(4-(3-(5,6,7,8-tetrahydro-1,8-naphthyridin-2-yl)propyl)-1H-pyrazol-1-yl)propanoic acid] |
| 27 nM | COc1ccc(C(CC(=O)O)c2ncc(CCCCc3ccc4c(n3)NCCC4)n2C)cn1 (single isomer, unassigned) [Example 165, 3-(6-methoxypyridin-3-yl)-3-(1-methyl-5-(4-(5,6,7,8-tetrahydro-1,8-naphthyridin-2-yl)butyl)-1H-imidazol-2-yl)propanoic acid] |
| 4.5 nM | COc1ncc(C(CC(=O)O)c2nc(CCCc3ccc4c(n3)NCCC4)cs2)cn1 (stereo not shown) [Example 145, 3-(2-methoxypyrimidin-5-yl)-3-(4-(3-(5,6,7,8-tetrahydro-1,8-naphthyridin-2-yl)propyl)thiazol-2-yl)propanoic acid] |
| 18 nM | COc1ccc(C(CC(=O)O)c2ncc(CCCc3ccc4c(n3)NCCC4)s2)cc1F (single isomer, unassigned) [Example 43, 3-(3-Fluoro-4-methoxyphenyl)-3-(5-(3-(5,6,7,8-tetrahydro-1,8-naphthyridin-2-yl)propyl)thiazol-2-yl)propanoic acid] |
| 24 nM | CN(C)C(=O)c1cncc(C(CC(=O)O)n2nccc2CCCc2ccc3c(n2)NCCC3)c1 (racemic) [Example 72, (±)-3-[5-(dimethylcarbamoyl)pyridin-3-yl]-3-{5-[3-(5,6,7,8-tetrahydro-1,8-naphthyridin-2-yl)propyl]-1H-pyrazol-1-yl}propanoic acid] |
| 8.1 nM | COc1ccc(C(CC(=O)O)c2nc(CCCC3CCc4cccnc4N3)cs2)cn1 (single isomer, unassigned) [Example 155, 3-(6-methoxypyridin-3-yl)-3-(4-(3-(1,2,3,4-tetrahydro-1,8-naphthyridin-2-yl)propyl)thiazol-2-yl)propanoic acid] |

These compounds were tested against human αVβ3 (Homo sapiens, UniProt P05106+P06756) (assay: human αVβ3 HTRF binding assay). Conditions: not given.
human αVβ3, sequence (P06756 31-992 limits assumed): as the sequence (P06756 31-992 limits assumed) above
human αVβ3, sequence (P05106 27-718 limits assumed): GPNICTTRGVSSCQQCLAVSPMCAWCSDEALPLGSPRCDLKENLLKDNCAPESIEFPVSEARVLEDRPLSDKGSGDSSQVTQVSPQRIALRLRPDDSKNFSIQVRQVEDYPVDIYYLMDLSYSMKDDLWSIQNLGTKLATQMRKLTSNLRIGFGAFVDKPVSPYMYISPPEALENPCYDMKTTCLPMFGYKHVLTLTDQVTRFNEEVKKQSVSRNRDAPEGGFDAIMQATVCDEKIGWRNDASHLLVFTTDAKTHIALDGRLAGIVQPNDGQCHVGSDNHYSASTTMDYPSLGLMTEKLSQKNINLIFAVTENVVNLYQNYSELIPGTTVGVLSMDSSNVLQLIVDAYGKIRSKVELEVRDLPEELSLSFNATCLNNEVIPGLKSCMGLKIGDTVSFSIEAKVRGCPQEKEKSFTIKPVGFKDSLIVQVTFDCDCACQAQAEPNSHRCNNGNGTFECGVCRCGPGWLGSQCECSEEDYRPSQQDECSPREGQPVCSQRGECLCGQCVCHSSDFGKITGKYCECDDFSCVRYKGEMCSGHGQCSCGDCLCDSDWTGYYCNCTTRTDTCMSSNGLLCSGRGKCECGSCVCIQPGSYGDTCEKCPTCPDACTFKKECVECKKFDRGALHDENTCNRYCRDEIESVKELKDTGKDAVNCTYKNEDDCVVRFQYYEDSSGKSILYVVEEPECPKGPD
Description: (§1) All binding assays used the HTRF (homogeneous time resolved fluorescence) technology from Cisbio International, therefore all assays are described as HTRF binding assays. The assay results for the Examples are listed above together with the characterization data. The HTRF binding assays are established for the following integrins: human αVβ6, human αVβ1, human αVβ3, human αVβ5, and human αVβ8. All assays used the following assay buffer: 20 mM Tris, pH 7.4, 1 mM MgCl2, 1 mM MnCl2, 0.01% Tween 20, and 0.01% BSA. Alternatively, a SPA-based assay was used for evaluation of receptor binding.
The following describes the components and a representative procedure for the human αVβ6 HTRF binding assay: Recombinant human αVβ6 Integrin (R & D systems, 3817-AV) was biotinylated. Biotinylated human αVβ6 Integrin was added to assay vessel at a final concentration of 1.25 nM. FITC-conjugated fibronectin (Cytoskeleton, FNR02) was then added at the final concentration of 5 nM. The mixture was centrifuged at 600 rpm for three minutes using Thermo Fisher Heraeus Multifuge X3 centrifuge and then incubated at RT for an hour. Streptavidin Terbium (Cisbio international 610STLB) was then added at the final concentration of 0.625 nM. The resulting mixture was centrifuged at 600 rpm for three minutes using Thermo Fisher Heraeus Multifuge X3 centrifuge and then incubated at room temperature overnight in dark before reading HTRF signals.

| IC50 | SMILES |
| --- | --- |
| 3.8 nM | COc1cncc(C(CC(=O)O)n2ccc(CCCc3ccc4c(n3)NCCC4)n2)c1 (single isomer, unassigned) [Example 64, 3-(5-methoxypyridin-3-yl)-3-(3-(3-(5,6,7,8-tetrahydro-1,8-naphthyridin-2-yl)propyl)-1H-pyrazol-1-yl)propanoic acid] |
| 1.6 nM | Cn1cc([C@H](CC(=O)O)n2ccc(CCCc3ccc4c(n3)NCCC4)n2)ccc1=O [Example 45, (S)-3-(1-Methyl-6-oxo-1,6-dihydropyridin-3-yl)-3-(3-(3-(5,6,7,8-tetrahydro-1,8-naphthyridin-2-yl)propyl)-1H-pyrazol-1-yl)propanoic acid ditrifluoroacetic acid salt] |

These compounds were tested against human αVβ8 (Homo sapiens, UniProt P06756+P26012) (assay: human αVβ8 HTRF binding assay). Conditions: not given.
human αVβ8, sequence (P06756 31-992 limits assumed): as the sequence (P06756 31-992 limits assumed) above
human αVβ8, sequence (P26012 43-684 limits assumed): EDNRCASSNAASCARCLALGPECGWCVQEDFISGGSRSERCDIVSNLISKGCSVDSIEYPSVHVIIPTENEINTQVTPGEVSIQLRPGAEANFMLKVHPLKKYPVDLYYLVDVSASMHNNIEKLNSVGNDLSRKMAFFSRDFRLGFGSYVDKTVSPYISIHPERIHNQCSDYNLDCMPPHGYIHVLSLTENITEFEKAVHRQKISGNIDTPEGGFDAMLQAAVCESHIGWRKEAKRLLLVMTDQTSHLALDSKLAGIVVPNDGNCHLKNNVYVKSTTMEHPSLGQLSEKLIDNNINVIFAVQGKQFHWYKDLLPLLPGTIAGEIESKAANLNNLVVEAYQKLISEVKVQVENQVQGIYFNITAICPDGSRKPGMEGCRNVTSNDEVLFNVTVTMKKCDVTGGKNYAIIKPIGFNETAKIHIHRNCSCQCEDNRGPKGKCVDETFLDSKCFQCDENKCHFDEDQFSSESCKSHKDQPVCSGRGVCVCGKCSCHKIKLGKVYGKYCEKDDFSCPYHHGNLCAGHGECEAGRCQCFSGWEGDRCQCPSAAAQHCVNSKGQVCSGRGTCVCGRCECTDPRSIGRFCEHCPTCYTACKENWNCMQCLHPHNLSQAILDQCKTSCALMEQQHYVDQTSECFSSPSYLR
Description: as §1, with “binding. […]” for “binding.”

| IC50 | SMILES |
| --- | --- |
| 110 nM | COc1cncc(C(CC(=O)O)n2ccc(CCCc3ccc4c(n3)NCCC4)n2)c1 (single isomer, unassigned) [Example 64, 3-(5-methoxypyridin-3-yl)-3-(3-(3-(5,6,7,8-tetrahydro-1,8-naphthyridin-2-yl)propyl)-1H-pyrazol-1-yl)propanoic acid] |
| 3020 nM | Cn1cc([C@H](CC(=O)O)n2ccc(CCCc3ccc4c(n3)NCCC4)n2)ccc1=O [Example 45, (S)-3-(1-Methyl-6-oxo-1,6-dihydropyridin-3-yl)-3-(3-(3-(5,6,7,8-tetrahydro-1,8-naphthyridin-2-yl)propyl)-1H-pyrazol-1-yl)propanoic acid ditrifluoroacetic acid salt] |
